According to patent publication US20260217701A1, “SELECTIVE BET INHIBITORS AND USES THEREOF” (Tay Therapeutics Limited, priority 2022, published 2026):
Several values for one entry are separate records, joined by “and”; a condition that tells them apart may be missing. Equal entries are not always repeated.

Experiments:
BRD4 BD2 = biological target: T1, BRD4 BD2 (Homo sapiens, UniProt O60885); assay: NanoBRET bromodomain assay, NanoLuc-BRD4-BD2 in HEK293 cells; assay type: binding; conditions: nanoBRET assay, given as symbol only
T1 construct: HEK293 cells were transfected using NanoLuc-BRD4-BD1 or NanoLuc-BRD4-BD2 fusion vectors
Method: Plates were then incubated at 37° C.+5% CO2 incubator for 2 hours.
Fold Selectivity Calculated (IC50 BD1/IC50 BD2).

[1] = test system: collagen-induced arthritis; conditions: for animals with weight gain at end of study / diarrhea over the 21-day period / increase in body weight, day 21 vs day 0: rat, in vivo; for increase in body weight, day 21 vs day 0: po; for control of hind paw volume: reference treatments vs CIA+vehicle (group 2)
Method: (§1) The emulsion was cooled in an ice water bath during the formulation. The final concentration of collagen was 1 mg/mL. The emulsion is prepared fresh immediately prior to injection.
as §1
Experimental groups for the study are outlined in Table 5A. […] Animals in group one received no immunization.
IHC markers for staining were selected after evaluating clinical and histopathological scores for animals. After the skin was removed, the right hind limb was snap frozen in liquid nitrogen and RNA and protein analysis was performed.
Blood samples were collected from animals in groups 1-7 via cardiac puncture following euthanasia on Day 21. […] Serum was divided into two separate tubes and stored at −75±15° C. One tube was used to analyze IgG1, and the other tube was reserved for additional analyses.
H&E-stained slides of designated tissues from animals were transferred to an independent pathologist for microscopic evaluation (SPFBio). Samples were assigned the histologic grades based on the severity of change from tissue where CIA was not induced. Histology grades assigned were as follows: grade 1 (minimal change), grade 2 (mild change), grade 3 (moderate change), grade 4 (marked change), and grade 5 (severe change). A grade may be assigned for each indicator of disease severity: inflammation, mixed cell; granulation tissue; increased bone, periosteum; increased eroded surface, bone and erosion/ulcer, cartilaginous. […] Moderate inflammation was also associated with increased edema fluid, fibrin, and cellular debris. Marked mixed cell inflammation was characterized by dense, widespread accumulations of neutrophils and macrophages with lesser number of lymphocytes within one or more joint spaces, synovium and periarticular soft tissues. Marked inflammation was also associated with abundant edema fluid, fibrin, and cellular debris.
Marked granulation tissue (pannus) was associated with inflammation and was characterized by widespread fibrovascular connective tissue that expanded/replaced the periarticular soft tissues of one or more joints, extended into/expanded joint spaces, was contiguous with areas of erosion/ulcer in articular cartilage and/or increased eroded surface of bone, and variably extended along the diaphysis.
Marked increased periosteal bone (periosteal bone formation) was characterized by extensive areas of increased bone matrix and numerous prominent osteoblasts lining trabecular surfaces along the metaphysis and/or diaphysis of one or more bones.

[2] = CIA study: animal body weight; conditions: for Average animal body weight percent change: CIA; for Animal body weight percent change (%): Group 3 (CIA + Dexamethasone), individual animals

COCCn1cc(-c2ccccc2)c(-c2cn(C)c(=O)c3[nH]c(-c4cnn(C(F)(F)F)c4)cc23)cc1=O [Compound B, 4-(1-(2-methoxyethyl)-2-oxo-5-phenyl-1,2-dihydropyridin-4-yl)-6-methyl-2-(1-(trifluoromethyl)-1H-pyrazol-4-yl)-1,6-dihydro-7H-pyrrolo[2,3-c]pyridin-7-one]
Selectivity (BD1/BD2) (BRD4 BD2; higher number denotes higher selectivity): >>>>
BD2 (BRD4 BD2; lower number denotes higher potency): ≤

C[C@@H]1C[C@H]2[C@@H]3CCC4=CC(=O)C=C[C@]4(C)[C@@]3(F)[C@@H](O)C[C@]2(C)[C@@]1(O)C(=O)CO [Dexamethasone, dexamethasone]
animals with weight gain at end of study [1]: 4/8
diarrhea over the 21-day period [1]: did not have diarrhea
increase in body weight, day 21 vs day 0 [1]: 1.3%
average overall clinical score at plateau ([1]; reference treatments (groups 3 and 4), around day 18): never exhibited any signs of disease
control of hind paw volume [1]: effective at controlling paw volume
Average animal body weight percent change ([2]; Day 0): 0.00%
Animal body weight percent change (%) ([2]; Day 0): 0.00%
Average animal body weight percent change ([2]; Day 1): −2.80%
Animal body weight percent change (%) ([2]; Day 1): 0.66% and −7.41% and −1.72% and −2.37% and 1.20% and −6.21%
Average animal body weight percent change ([2]; Day 2): −3.22%
Animal body weight percent change (%) ([2]; Day 2): −0.66% and −6.79% and 1.15% and −1.78% and −3.01% and −8.07%
Average animal body weight percent change ([2]; Day 3): −4.37%
Animal body weight percent change (%) ([2]; Day 3): −1.99% and 11.11% and 0.57% and −2.96% and −2.41% and −9.94%
Average animal body weight percent change ([2]; Day 4): −4.95%
Animal body weight percent change (%) ([2]; Day 4): −2.65% and −9.26% and −2.30% and −5.33% and −6.02%
Average animal body weight percent change ([2]; Day 5): −4.95%
Animal body weight percent change (%) ([2]; Day 5): −2.65% and −8.02% and −5.17% and −2.96% and −4.82%
Average animal body weight percent change ([2]; Day 6): −4.41%
Animal body weight percent change (%) ([2]; Day 6): −2.65% and 6.17% and −1.72% and −4.73% and −6.63%
Average animal body weight percent change ([2]; Day 7): −3.35%
Animal body weight percent change (%) ([2]; Day 7): −0.66% and −5.56% and 2.30% and −4.14% and −3.61%
Average animal body weight percent change ([2]; Day 8): −3.90%
Average animal body weight percent change ([2]; Day 9): −1.84%
Average animal body weight percent change ([2]; Day 10): −2.30%
Average animal body weight percent change ([2]; Day 11): −1.24%
Average animal body weight percent change ([2]; Day 12): −1.18%
Average animal body weight percent change ([2]; Day 13): −0.91%
Average animal body weight percent change ([2]; Day 14): −1.24%
Average animal body weight percent change ([2]; Day 15): 0.43%
Animal body weight percent change (%) ([2]; Day 15): 9.93% and −3.09% and 2.30% and 0.59% and 1.20% and −6.83% and 2.33% and −0.63%
Average animal body weight percent change ([2]; Day 16): −0.57%
Animal body weight percent change (%) ([2]; Day 16): 3.97% and −5.56% and 7.47% and −0.59% and −4.22% and −8.70% and 1.16% and 1.88%
Average animal body weight percent change ([2]; Day 17): 0.62%
Animal body weight percent change (%) ([2]; Day 17): 5.96% and −4.32% and 8.05% and −2.37% and 0.60% and −6.83% and −1.16% and 5.00%
Average animal body weight percent change ([2]; Day 18): 1.02%
Animal body weight percent change (%) ([2]; Day 18): 3.97% and −6.17% and 8.62% and −2.37% and 0.00% and −5.59% and 4.07% and 5.63%
Average animal body weight percent change ([2]; Day 19): 1.53%
Animal body weight percent change (%) ([2]; Day 19): 7.28% and −9.26% and 10.34% and 0.59% and 1.20% and −5.59% and 5.81% and 1.88%
Average animal body weight percent change ([2]; Day 20): 1.66%
Animal body weight percent change (%) ([2]; Day 20): 7.95% and −3.70% and 5.75% and 2.37% and 0.60% and 4.35% and 4.65% and 0.00%
Average animal body weight percent change ([2]; Day 21): 1.30%
Animal body weight percent change (%) ([2]; Day 21): 8.61% and −3.70% and 7.47% and 0.00% and −3.01% and −5.59% and 2.91% and 3.75%

CNC(=O)c1cc(C(=O)NC2CC2)cn(Cc2ccccc2)c1=O [GSK620]
animals exhibiting disease ([1]; group 4, day 18): all animals
animals with weight gain at end of study [1]: 4/8
diarrhea over the 21-day period [1]: did not have diarrhea
increase in body weight, day 21 vs day 0 [1]: 0.8%
control of hind paw volume [1]: failed to prevent an increase in paw volume
